Experimental data reported in patent publication US6420538B1, “Aromatic amides, preparation method and application as medicines” (Aventis Pharma S.A., priority 1998, dated 2002).

Tests used:
Experiment in all cases: Method of dilutions in liquid medium (MIC)
Type in all cases: cell-based
Settings in all cases: 24 hours at 37° C.
[1] = test system: Staph. coag. negative 012HT5
Description: (§1) A—Method of dilutions in liquid medium A series of tubes is prepared in which the same quantity of sterile nutritive medium is distributed. Increasing quantities of the product to be studied are distributed into each tube, then each tube is sown with a bacterial strain. After incubation for twenty-four hours in an oven at 37° C., the growth inhibition is evaluated by transillumination, which allows the minimal inhibitory concentrations (M.I.C.) to be determined, expressed in micrograms/cm^3. Activity in vitro MIC in μg/ml

[2] = test system: Strepto. pneumoniae 030BI2
Description: as §1

Strepto. pyogene 02A1UC1 = test system: Strepto. pyogene 02A1UC1
Description: as §1

[3] = test system: Staph. epidermidis 0126042
Description: as §1

Staph. aureus 011HT18 = test system: Staph. aureus 011HT18
Description: as §1

Entero faecalis 02D2UC5 = test system: Entero faecalis 02D2UC5
Description: as §1

Entero faecium 02D3IP2 = test system: Entero faecium 02D3IP2
Description: as §1

Row | SMILES | Activity in vitro MIC [1] [µg/mL] | Activity in vitro MIC [2] [µg/mL] | Activity in vitro MIC (Strepto. pyogene 02A1UC1) [µg/mL] | Activity in vitro MIC [3] [µg/mL] | Activity in vitro MIC (Staph. aureus 011HT18) [µg/mL] | Activity in vitro MIC (Entero faecalis 02D2UC5) [µg/mL] | Activity in vitro MIC (Entero faecium 02D3IP2) [µg/mL]
1 | C#CCONC(=O)O[C@H]1[C@@H](O)[C@H](Oc2ccc3c(O)c(C(N)=O)c(=O)oc3c2C)OC(C)(C)[C@@H]1OC [Ex. 1, (2-propynyloxy)-carbamic 3′ester of 7-[[6-deoxy-5-C-methyl-4-O-methyl-alpha-L-lyxo-hexopyranosyl]oxy]-4-hydroxy-8-methyl-2-oxo-2H-1-benzopyran-3-carboxamide acid] | 0.3 | 0.04 | 0.6 | 0.04 | 0.04 | 0.3 | 0.08
2 | C#CCONC(=O)O[C@H]1[C@@H](O)[C@H](Oc2ccc3c(O)c(C(=O)NCCN4CCOCC4)c(=O)oc3c2C)OC(C)(C)[C@@H]1OC [Ex. 2, 7-[(6-deoxy-5-C-methyl-4-O-methyl-alpha-L-lyxo-hexopyranosyl)oxyl]-4-hydroxy-8-methyl-N-[2-(4-morpholinyl)ethyl]-2-oxo-2H-1-benzopyrane-3-carboxamide (2-propynyloxy)-carbamic 3′-ester acid] | 0.04 | 0.08 | 0.3 | 0.04 | 0.04 | 1.2 | 0.6
3 | C#CCONC(=O)O[C@H]1[C@@H](O)[C@H](Oc2ccc3c(O)c(C(C)=NOC)c(=O)oc3c2C)OC(C)(C)[C@@H]1OC [Ex. 3, 7-[[6-deoxy-5-C-methyl-4-O-methyl-alpha-L-lyxo-hexopyranosyl]oxy]-4-hydroxy-3-[1-(methoxyimino)ethyl]-8-methyl-2H-1-benzopyran-2-one(2-propynyloxy)-carbamic-3′-ester acid] | 0.15 | 0.08 | 0.6 | 0.04 | 0.04 | 1.2 | 1.2
4 | C#CCONC(=O)O[C@H]1[C@@H](O)[C@H](Oc2ccc3c(O)c(C(C)=NOCC)c(=O)oc3c2C)OC(C)(C)[C@@H]1OC [Ex. 4, 7-[(6-deoxy-5-C-methyl-4-O-methyl-alpha-L-lyxo-hexopyranosyl)oxy]-3-[1-(ethoxyimino)ethyl]-4-hydroxy-8-methyl-2H-1-benzopyran-2-one(2-propynyloxy)-carbamic 3′-ester acid] | 0.15 | 0.15 | 0.6 | 0.15 | 0.04 | 1.2 | 1.2
